Reference: patent US7776833B2, “Use of cyclic bioisosters of purine system derivatives for treating diseases produced by disorders of niterergic and dopaminergic systems” (priority 2003, dated 2010)

Tests used:
Type in all cases: in vivo, Wistar rats
[1] = system: nitrites and nitrates (NOx-); assay: Measurement of nitrates/nitrites (NOx-) in brain regions after the morphine abstinence experiment
Protocol: (§1) After the above experiments the rat brains were isolated and immediately placed in the ice cold 0.9% solution of sodium chloride. After cooling the following structures were isolated from the brain: cerebral cortex, hippocampus, mesencephalon, striatum, brainstem, hypothalamus and cerebellum. The isolated tissue was homogenized in a Potter S homogenizer for 3 minutes at 1500 rpm in 4-5 volumes of 20 mM HEPES (pH 7.5) at 4° C. The supernatants were centrifuged for 30 minutes at 11000 g at 4° C., and aliquots of the obtained supernatants were taken for determining nitrates and nitrites (NOx-), while the remaining part was mixed with cooled 20 mM of HEPES (pH 7.5), containing 0.5 mM ethylenediamine tetraacetate (EDTA), 1 mM dithiotreitol (DDT), 1 mM phenylmethylsulfonyl fluoride (PMSF), aprotinine and leupeptine at a concentration of 5 μg/ml, this mixture being used for determining nitric oxide synthase (NOS) activity.
To estimate the intensity of metabolism of nitric oxide in rats, quantitative determination of stable metabolites of nitrogen oxide-nitrites and nitrates (NOx-) was performed using a fluorometric method by fluorescence of naphthotriazole, a product of reaction of 2,3- diaminonaphthalene (DAN) and nitrite in an acidic medium (Misko T. R., Schilling R. J., Salvemini D. et al. A fluorometric assay for the measurement of nitrite in biological samples. Anal. Biochem., 1993, V. 214, p.11-16) with modifications (Lei B., Adachi N., Nagaro T., Arai T. Measurement of total nitric oxide metabolite (NO (x) (-)) levels in vivo. Brain. Res. Protoc., 1999, V. 4, p. 415-419).
The supernatants of brain deproteinized at 100° C. were placed in a nitrite recovery system containing 0.125 unit/ml of nitrate reductase, 25 μM NADPH and 25 μM FAD prepared in 20 mM Tris-HCl buffer pH 7.6 and incubated for 30 minutes at 37° C. For oxidation of NADPH a lactate dehydrogenase (LDH)/pyruvate system was used. Then 316.0 μM DAN solution in 0.62 M HCl was added and the mixture was incubated for 10 minutes in dark. For stabilization of fluorescence of the formed naphthotriazole, 280 mM NaOH was added. The fluorescence intensity was measured using spectrofluorometer Hitachi F-3000 at a wavelength of excitation 365 nm and emission 405 nm. To calculate the concentration of NOx- in the brain a standard solution of sodium nitrate was used. The concentration of NOx- was expressed in nmol/mg of protein.
(§2) The content of protein in the samples was determined by the Bradford method (Bradford M. M. A rapid and sensitive method for quantitation of microgram quantities of protein using the principle of protein binding . Anal. Biochem., 1976, V. 72, p. 248-254) using Coumassi dye. The statistical analysis was performed using methods appropriate for respective experiments. The data are expressed as mean±standard error of mean.

[2] = system: nitric oxide synthase (NOS); assay: Nitric oxide synthase activity in brain regions, radiometric [3H]L-citrulline method; details: 3 x 20 mg/kg intramuscularly
Protocol: as §1
The activity of nitric oxide synthase (NOS) was determined using a radiometric method by the rate of L-citrulline accumulation in a reaction of [^3H] L-arginine oxidation catalyzed by NOS (Bredt M., Snyder S. Nitric oxide mediates glutamate-linked enhancement of cGMP levels in the cerebellum. Proc. Natl. Acad. Sci., USA, 1989, V.86, p.9030-9033). The formation of L-citrulline in this reaction is equivalent to a biosynthesis of nitric oxide.
The reaction was initiated by adding brain supernatant in the reaction medium containing 2 μCi/ml of [3H] L-arginine, 20 mM HEPES (pH 7.4), 0.2 mM CaCl2, 5 μM FAD, 5 μM FMN, 1 mM NADPH, 50 μM of BH4. After 15-60 minutes of incubation at 37° C. a suspension of Dowex 50WX8-400 (Na^+-form), which sorbs unreacted [^3H]L-arginine, but not [^3H] L-citrulline was added to the samples. After the sorption the radioactivity of the samples was determined on a scintillation counter SL-4000 (“Intertechnique”). The activity of Ca^2+-dependent and Ca^2+-independent NOS isoforms was determined by the difference of rates of [^3H]L-citrulline formation in three parallel samples containing 2 mM EDTA (Ca^2+ chelator), 2 mM EDTA+2 mM L-NAME (inhibitor all NOS isoforms) or without inhibitors. The enzyme activity was expressed in rnol [^3H]L-citrulline acumulated per 1 minute on 1 mg of supernatant protein.
as §2

[3] = system: physical dependence from morphine (morphine abstinence); assay: Morphine abstinence syndrome, signs scored in the open field test
Protocol: Thirty six hours after the last injection selected motor and autonomice parameters which are specific symptoms of abstinence were monitored in the <<open field>> test (an arena with a diameter of 120 cm and wall height of 40 cm).
Med., 2002, V.29, p.1-6.). The observable signs were recorded quantitatively (if it was possible) with further assignment of an index to each sign (depending on the specific feature of the sign) and calculation of the sum of scores. The expression of the abstinence syndrome was presented as a sum of scores. The results were processed using nonparametric statistical analysis based on the Mann-Whitney test.

[4] = Groups Nos. 3-14, compound without morphine, 3 x 20 mg/kg intramuscularly, one value for all 12 compounds
[5] = Morphine + compound, 3 x 20 mg/kg intramuscularly, one value for the three compounds
[6] = Groups Nos. 3-14, compound without morphine, one value for all 12 compounds
[7] = Morphine + compound, one value for the three compounds
[8] = Morphine − (morphine + compound), compound 3 x 20 mg/kg intramuscularly, one value for the three compounds
[9] = Control − morphine, open field, 36 h after last morphine injection

With `O=c1[nH]n([C@@H]2O[C@H](CO)[C@@H](O)[C@H]2O)c(=O)c2ncccc12.[Na]` [Compound 1, sodium salt of 7-(β-D-ribofuranosile)pyrido[2,3-d]-6H-pyridazine-5,8-dione] the “Nitrites, brainstem” value [1, 4] was 6.31 ± 0.58 nmol/mg of protein, the “Nitrites, cerebellum” value [1, 4] was 6.66 ± 0.63 nmol/mg of protein and the “Nitrites, cerebral cortex” value [1, 4] was 4.31 ± 0.37 nmol/mg of protein. The “Nitrites, hippocampus” value [1, 4] was 6.47 ± 0.72 nmol/mg of protein, the “Nitrites, hypothalamus” value [1, 4] was 6.77 ± 0.83 nmol/mg of protein and the “Nitrites, midbrain” value [1, 4] was 6.65 ± 0.70 nmol/mg of protein. For the same compound, the “Nitrites, striatum” value [1, 4] was 6.11 ± 0.29 nmol/mg of protein, the “Nitrites, brainstem” value [1, 5] was 6.57 ± 0.72 nmol/mg of protein and the “Nitrites, cerebellum” value [1, 5] was 5.46 ± 0.44 nmol/mg of protein. For the same compound, the “Nitrites, cerebral cortex” value [1, 5] was 4.72 ± 0.37 nmol/mg of protein, the “Nitrites, hippocampus” value [1, 5] was 5.44 ± 0.43 nmol/mg of protein and the “Nitrites, hypothalamus” value [1, 5] was 6.57 ± 0.88 nmol/mg of protein. The “Nitrites, midbrain” value [1, 5] was 5.50 ± 0.48 nmol/mg of protein, the “Nitrites, striatum” value [1, 5] was 3.57 ± 0.42 nmol/mg of protein and the “Activity of NOS, hippocampus” value [2, 6] was 3.09 ± 0.16 nmol/min/mg of protein. The “Activity of NOS, hypothalamus” value [2, 6] was 5.45 ± 0.24 nmol/min/mg of protein, the “Activity of NOS, midbrain” value [2, 6] was 2.60 ± 0.29 nmol/min/mg of protein and the “Activity of NOS, striatum” value [2, 6] was 1.26 ± 0.08 nmol/min/mg of protein. The “Activity of NOS, hippocampus” value [2, 7] was 2.70 ± 0.14 nmol/min/mg of protein, the “Activity of NOS, hypothalamus” value [2, 7] was 5.26 ± 0.28 nmol/min/mg of protein and the “Activity of NOS, midbrain” value [2, 7] was 1.83 ± 0.23 nmol/min/mg of protein. The “Activity of NOS, striatum” value [2, 7] was 1.24 ± 0.08 nmol/min/mg of protein, the “Authentic differences (ξ-square criterion) in appearance of signs of abstinence: <<Wet dog>> shakes” value (“Authentic differences … <<Wet dog>> shakes” for short) [3, 8] was 1.0000 and the “Authentic differences (ξ-square criterion) in appearance of signs of abstinence: Aggression” value (“Authentic differences … Aggression” for short) [3, 8] was 0.8327. For the same compound, the “Authentic differences (ξ-square criterion) in appearance of signs of abstinence: Convulsions” value (“Authentic differences … Convulsions” for short) [3, 8] was 0.7821, the “Authentic differences (ξ-square criterion) in appearance of signs of abstinence: Diarrhea” value (from here on “Authentic differences … Diarrhea”) [3, 8] was 0.0046 and the “Authentic differences (ξ-square criterion) in appearance of signs of abstinence: Dyspnea” value (shortened to “Authentic differences … Dyspnea”) [3, 8] was 0.0722. For the same compound, the “Authentic differences (ξ-square criterion) in appearance of signs of abstinence: Forelimb jogging” value (shortened to “Authentic differences … Forelimb jogging”) [3, 8] was 0.7821, the “Authentic differences (ξ-square criterion) in appearance of signs of abstinence: Grit with teeth” value (“Authentic differences … with teeth” below) [3, 8] was 0.7144 and the “Authentic differences (ξ-square criterion) in appearance of signs of abstinence: Mastication” value [3, 8] was 0.1888. For the same compound, the “Authentic differences (ξ-square criterion) in appearance of signs of abstinence: Piloerection” value (from here on “Authentic differences … Piloerection”) [3, 8] was 0.1847, the “Authentic differences (ξ-square criterion) in appearance of signs of abstinence: Ptosis” value (shortened to “Authentic differences … Ptosis”) [3, 8] was 0.0201 and the “Authentic differences (ξ-square criterion) in appearance of signs of abstinence: Rhinorrhea” value (from here on “Authentic differences … Rhinorrhea”) [3, 8] was 0.3017. For the same compound, the “Authentic differences (ξ-square criterion) in appearance of signs of abstinence: Squeak when touched” value (“Authentic differences … when touched” for short) [3, 8] was 0.1888.
For `O=c1[nH]n([C@@H]2O[C@H](CO)[C@@H](O)[C@H]2O)c(=O)c2nccc(O)c12.[Na]` [Compound 4, isodium salt of 4-hydroxy-7-(β-D-ribofuranosile)pyrido[2,3-d]-6H-pyridazine-5,8-dione], the “Nitrites, brainstem” value [1, 4] was 6.31 ± 0.58 nmol/mg of protein, the “Nitrites, cerebellum” value [1, 4] was 6.66 ± 0.63 nmol/mg of protein and the “Nitrites, cerebral cortex” value [1, 4] was 4.31 ± 0.37 nmol/mg of protein. For the same compound, the “Nitrites, hippocampus” value [1, 4] was 6.47 ± 0.72 nmol/mg of protein, the “Nitrites, hypothalamus” value [1, 4] was 6.77 ± 0.83 nmol/mg of protein and the “Nitrites, midbrain” value [1, 4] was 6.65 ± 0.70 nmol/mg of protein. For the same compound, the “Nitrites, striatum” value [1, 4] was 6.11 ± 0.29 nmol/mg of protein, the “Nitrites, brainstem” value [1, 5] was 6.57 ± 0.72 nmol/mg of protein and the “Nitrites, cerebellum” value [1, 5] was 5.46 ± 0.44 nmol/mg of protein. The “Nitrites, cerebral cortex” value [1, 5] was 4.72 ± 0.37 nmol/mg of protein, the “Nitrites, hippocampus” value [1, 5] was 5.44 ± 0.43 nmol/mg of protein and the “Nitrites, hypothalamus” value [1, 5] was 6.57 ± 0.88 nmol/mg of protein. The “Nitrites, midbrain” value [1, 5] was 5.50 ± 0.48 nmol/mg of protein, the “Nitrites, striatum” value [1, 5] was 3.57 ± 0.42 nmol/mg of protein and the “Activity of NOS, hippocampus” value [2, 6] was 3.09 ± 0.16 nmol/min/mg of protein. For the same compound, the “Activity of NOS, hypothalamus” value [2, 6] was 5.45 ± 0.24 nmol/min/mg of protein, the “Activity of NOS, midbrain” value [2, 6] was 2.60 ± 0.29 nmol/min/mg of protein and the “Activity of NOS, striatum” value [2, 6] was 1.26 ± 0.08 nmol/min/mg of protein. The “Activity of NOS, hippocampus” value [2, 7] was 2.70 ± 0.14 nmol/min/mg of protein, the “Activity of NOS, hypothalamus” value [2, 7] was 5.26 ± 0.28 nmol/min/mg of protein and the “Activity of NOS, midbrain” value [2, 7] was 1.83 ± 0.23 nmol/min/mg of protein. The “Activity of NOS, striatum” value [2, 7] was 1.24 ± 0.08 nmol/min/mg of protein, the “Authentic differences … <<Wet dog>> shakes” value [3, 8] was 1.0000 and the “Authentic differences … Aggression” value [3, 8] was 0.8327. The “Authentic differences … Convulsions” value [3, 8] was 0.7821, the “Authentic differences … Diarrhea” value [3, 8] was 0.0046 and the “Authentic differences … Dyspnea” value [3, 8] was 0.0722. For the same compound, the “Authentic differences … Forelimb jogging” value [3, 8] was 0.7821, the “Authentic differences … with teeth” value [3, 8] was 0.7144 and the “Authentic differences (ξ-square criterion) in appearance of signs of abstinence: Mastication” value [3, 8] was 0.1888. For the same compound, the “Authentic differences … Piloerection” value [3, 8] was 0.1847, the “Authentic differences … Ptosis” value [3, 8] was 0.0201 and the “Authentic differences … Rhinorrhea” value [3, 8] was 0.3017. The “Authentic differences … when touched” value [3, 8] was 0.1888.
`CN1CC[C@]23c4c5ccc(O)c4O[C@H]2[C@@H](O)C=C[C@H]3[C@H]1C5.Cl` [morphine, morphine hydrochloride, reference compound] was tested, and the “Nitrites, cerebellum” value ([1]; Group No. 2 (morphine)) was 6.07 ± 0.42 nmol/mg of protein, the “Nitrites, hippocampus” value ([1]; Group No. 2 (morphine)) was 6.45 ± 0.69 nmol/mg of protein and the “Nitrites, hypothalamus” value ([1]; Group No. 2 (morphine)) was 4.62 ± 0.71 nmol/mg of protein. For the same compound, the “Authentic differences … <<Wet dog>> shakes” value [3, 9] was 0.0002, the “Authentic differences … Aggression” value [3, 9] was 0.5770 and the “Authentic differences … Convulsions” value [3, 9] was 0.0507. The “Authentic differences … Diarrhea” value [3, 9] was 0.0075, the “Authentic differences … Dyspnea” value [3, 9] was 0.0053 and the “Authentic differences … Forelimb jogging” value [3, 9] was 0.0180. The “Authentic differences … with teeth” value [3, 9] was 0.1266, the “Authentic differences … Piloerection” value [3, 9] was 0.5770 and the “Authentic differences … Ptosis” value [3, 9] was 0.0053. The “Authentic differences … Rhinorrhea” value [3, 9] was 0.2994 and the “Authentic differences … when touched” value [3, 9] was 0.0053.
